Experimental data published in paper PMC10507085, “Pharmacological inhibition of TBK1/IKKε blunts immunopathology in a murine model of SARS-CoV-2 infection” (Nature Communications, 2023).

How the values were obtained:
[1] = target: T1, TBK1 (TANK-binding kinase 1) (Homo sapiens, UniProt Q9UHD2); test: surface plasmon resonance (Biacore T200, steady-state affinity)
T1 construct: full-length human TBK1, expressed in Sf9, His tag removed by TEV

DRAK1 [2] = target: T2, DRAK1 (Homo sapiens, UniProt Q9UEE5); test: KINOMEscan competition binding ([…] kinases, […] IDX)
T2 construct: gene STK17A
T2 sequence (Q9UEE5 1-414): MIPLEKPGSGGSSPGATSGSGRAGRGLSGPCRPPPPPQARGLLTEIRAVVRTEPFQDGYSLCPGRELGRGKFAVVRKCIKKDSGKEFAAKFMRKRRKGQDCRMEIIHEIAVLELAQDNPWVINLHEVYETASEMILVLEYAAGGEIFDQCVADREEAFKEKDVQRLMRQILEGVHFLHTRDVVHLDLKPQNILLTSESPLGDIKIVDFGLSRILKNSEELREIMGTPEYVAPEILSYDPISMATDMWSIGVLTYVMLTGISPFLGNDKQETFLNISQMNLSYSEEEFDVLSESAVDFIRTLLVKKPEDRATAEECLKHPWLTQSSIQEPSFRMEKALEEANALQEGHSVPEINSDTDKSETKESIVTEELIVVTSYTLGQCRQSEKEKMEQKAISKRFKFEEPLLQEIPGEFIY

PIM2 = PIM2 (Homo sapiens, UniProt Q9P1W9); test: KINOMEscan competition binding ([…] kinases, […] IDX)
PIM2, sequence (Q9P1W9 whole entry): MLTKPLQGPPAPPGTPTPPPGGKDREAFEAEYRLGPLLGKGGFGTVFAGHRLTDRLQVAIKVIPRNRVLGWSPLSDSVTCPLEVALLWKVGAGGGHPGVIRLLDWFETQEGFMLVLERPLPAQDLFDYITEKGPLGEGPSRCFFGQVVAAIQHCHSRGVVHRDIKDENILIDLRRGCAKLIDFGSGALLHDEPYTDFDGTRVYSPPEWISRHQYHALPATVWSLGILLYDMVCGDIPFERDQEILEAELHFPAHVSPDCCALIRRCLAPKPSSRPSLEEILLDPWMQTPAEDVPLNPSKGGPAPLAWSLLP

CDK8 = CDK8 (Homo sapiens, UniProt P49336); test: biochemical; set-up: KINOMEscan competition binding, DNA-tagged kinase against immobilised ligand, qPCR read-out; settings: read-out: Percent Control
CDK8, sequence (P49336 whole entry): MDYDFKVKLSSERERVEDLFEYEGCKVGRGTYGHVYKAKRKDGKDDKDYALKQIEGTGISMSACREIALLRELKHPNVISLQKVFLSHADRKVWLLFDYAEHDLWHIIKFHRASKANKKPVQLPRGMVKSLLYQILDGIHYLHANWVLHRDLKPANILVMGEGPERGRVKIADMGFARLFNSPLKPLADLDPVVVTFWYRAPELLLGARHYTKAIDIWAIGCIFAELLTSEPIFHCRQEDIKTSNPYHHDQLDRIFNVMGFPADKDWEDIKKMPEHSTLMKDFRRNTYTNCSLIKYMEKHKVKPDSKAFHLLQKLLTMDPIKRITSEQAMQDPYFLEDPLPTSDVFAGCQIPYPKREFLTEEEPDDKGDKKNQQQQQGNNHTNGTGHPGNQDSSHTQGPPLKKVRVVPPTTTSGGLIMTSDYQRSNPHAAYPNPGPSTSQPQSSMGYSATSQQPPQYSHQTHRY

FER = FER (Homo sapiens, UniProt P16591); test: biochemical; set-up: KINOMEscan competition binding, DNA-tagged kinase against immobilised ligand, qPCR read-out; settings: read-out: Percent Control
NEK4 = NEK4 (Homo sapiens, UniProt P51957); test: biochemical; set-up: KINOMEscan competition binding, DNA-tagged kinase against immobilised ligand, qPCR read-out; settings: read-out: Percent Control
NEK4, sequence (P51957 whole entry): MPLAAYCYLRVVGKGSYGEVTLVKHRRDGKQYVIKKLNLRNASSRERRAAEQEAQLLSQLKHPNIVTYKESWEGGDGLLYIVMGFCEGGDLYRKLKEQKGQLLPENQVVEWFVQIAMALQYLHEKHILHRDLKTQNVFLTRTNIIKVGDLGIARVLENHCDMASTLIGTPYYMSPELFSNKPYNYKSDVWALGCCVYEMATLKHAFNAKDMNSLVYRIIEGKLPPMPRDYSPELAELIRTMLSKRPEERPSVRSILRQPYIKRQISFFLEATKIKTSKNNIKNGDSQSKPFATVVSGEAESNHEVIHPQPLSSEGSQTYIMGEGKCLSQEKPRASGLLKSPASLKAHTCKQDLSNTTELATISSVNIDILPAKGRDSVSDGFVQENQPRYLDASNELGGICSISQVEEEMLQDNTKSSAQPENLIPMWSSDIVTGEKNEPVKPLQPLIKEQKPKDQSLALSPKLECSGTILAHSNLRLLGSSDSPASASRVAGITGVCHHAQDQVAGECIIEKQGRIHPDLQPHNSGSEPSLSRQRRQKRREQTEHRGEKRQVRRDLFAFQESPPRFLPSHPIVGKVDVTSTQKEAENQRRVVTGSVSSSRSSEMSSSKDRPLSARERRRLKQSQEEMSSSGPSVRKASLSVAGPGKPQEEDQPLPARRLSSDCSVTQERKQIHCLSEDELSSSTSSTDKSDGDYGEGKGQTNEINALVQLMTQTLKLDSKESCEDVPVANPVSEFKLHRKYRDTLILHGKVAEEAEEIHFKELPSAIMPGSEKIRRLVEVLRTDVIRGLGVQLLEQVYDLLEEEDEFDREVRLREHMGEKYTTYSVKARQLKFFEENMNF

PIK3CB = PIK3CB (Homo sapiens, UniProt P42338); test: biochemical; set-up: KINOMEscan competition binding, DNA-tagged kinase against immobilised ligand, qPCR read-out; settings: read-out: Percent Control
PRKAA1 = PRKAA1 (Homo sapiens, UniProt Q13131); test: biochemical; set-up: KINOMEscan competition binding, DNA-tagged kinase against immobilised ligand, qPCR read-out; settings: read-out: Percent Control
PRKAA1, sequence (Q13131 whole entry): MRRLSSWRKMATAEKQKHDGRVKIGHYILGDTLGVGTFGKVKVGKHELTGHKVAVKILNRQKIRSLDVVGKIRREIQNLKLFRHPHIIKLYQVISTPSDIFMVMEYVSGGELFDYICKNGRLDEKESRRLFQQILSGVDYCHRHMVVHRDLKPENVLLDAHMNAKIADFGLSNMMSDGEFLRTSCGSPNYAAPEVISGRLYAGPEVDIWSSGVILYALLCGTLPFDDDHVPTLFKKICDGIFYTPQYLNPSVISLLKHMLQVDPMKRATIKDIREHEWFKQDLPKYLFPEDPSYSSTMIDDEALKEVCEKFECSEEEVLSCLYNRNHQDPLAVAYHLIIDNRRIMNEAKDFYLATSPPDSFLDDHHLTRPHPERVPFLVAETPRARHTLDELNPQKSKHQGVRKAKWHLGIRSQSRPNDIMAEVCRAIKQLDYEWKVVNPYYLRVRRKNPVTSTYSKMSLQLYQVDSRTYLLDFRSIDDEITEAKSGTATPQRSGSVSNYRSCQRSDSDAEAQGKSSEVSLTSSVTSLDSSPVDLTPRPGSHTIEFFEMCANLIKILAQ

RIOK3 = RIOK3 (Homo sapiens, UniProt O14730); test: biochemical; set-up: KINOMEscan competition binding, DNA-tagged kinase against immobilised ligand, qPCR read-out; settings: read-out: Percent Control
RIOK3, sequence (O14730 whole entry): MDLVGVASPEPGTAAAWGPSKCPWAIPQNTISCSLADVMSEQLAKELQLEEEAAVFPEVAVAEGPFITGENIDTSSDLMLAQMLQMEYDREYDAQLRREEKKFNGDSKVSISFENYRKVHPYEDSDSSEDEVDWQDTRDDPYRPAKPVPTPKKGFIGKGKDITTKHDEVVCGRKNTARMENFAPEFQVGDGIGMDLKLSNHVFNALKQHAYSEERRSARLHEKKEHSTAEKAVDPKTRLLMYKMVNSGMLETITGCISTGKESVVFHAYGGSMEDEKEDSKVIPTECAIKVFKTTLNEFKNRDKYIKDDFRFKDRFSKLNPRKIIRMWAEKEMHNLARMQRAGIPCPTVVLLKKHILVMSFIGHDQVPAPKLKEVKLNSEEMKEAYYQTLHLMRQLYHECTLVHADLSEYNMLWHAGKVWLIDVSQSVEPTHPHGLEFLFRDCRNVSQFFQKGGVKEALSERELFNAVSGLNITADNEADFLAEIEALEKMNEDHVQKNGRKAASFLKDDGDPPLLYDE

SGK2 = SGK2 (Homo sapiens, UniProt Q9HBY8); test: biochemical; set-up: KINOMEscan competition binding, DNA-tagged kinase against immobilised ligand, qPCR read-out; settings: read-out: Percent Control
SGK2, sequence (Q9HBY8 whole entry): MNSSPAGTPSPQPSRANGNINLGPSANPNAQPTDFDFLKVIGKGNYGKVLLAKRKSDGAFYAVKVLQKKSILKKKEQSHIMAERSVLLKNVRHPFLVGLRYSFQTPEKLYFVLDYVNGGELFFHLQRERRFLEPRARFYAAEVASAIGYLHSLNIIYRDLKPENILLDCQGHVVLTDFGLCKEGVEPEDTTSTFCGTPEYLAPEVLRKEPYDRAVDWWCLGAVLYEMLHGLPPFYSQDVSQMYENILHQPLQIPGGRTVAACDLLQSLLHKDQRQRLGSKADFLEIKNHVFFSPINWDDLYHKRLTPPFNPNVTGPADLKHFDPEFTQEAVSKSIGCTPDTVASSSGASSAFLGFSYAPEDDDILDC

STK11 = STK11 (Homo sapiens, UniProt Q15831); test: biochemical; set-up: KINOMEscan competition binding, DNA-tagged kinase against immobilised ligand, qPCR read-out; settings: read-out: Percent Control
STK11, sequence (Q15831 whole entry): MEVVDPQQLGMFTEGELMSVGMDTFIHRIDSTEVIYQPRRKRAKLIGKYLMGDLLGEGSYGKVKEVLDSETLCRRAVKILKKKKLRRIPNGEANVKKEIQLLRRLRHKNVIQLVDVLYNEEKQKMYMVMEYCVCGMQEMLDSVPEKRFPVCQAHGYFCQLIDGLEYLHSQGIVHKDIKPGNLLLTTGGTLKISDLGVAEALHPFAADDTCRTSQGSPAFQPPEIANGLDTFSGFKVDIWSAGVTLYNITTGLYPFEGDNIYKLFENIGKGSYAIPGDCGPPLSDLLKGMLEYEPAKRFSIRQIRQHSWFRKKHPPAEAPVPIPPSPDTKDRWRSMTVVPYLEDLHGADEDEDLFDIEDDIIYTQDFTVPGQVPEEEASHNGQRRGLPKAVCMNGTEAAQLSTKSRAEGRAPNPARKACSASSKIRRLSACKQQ

STK3 = STK3 (Homo sapiens, UniProt Q13188); test: biochemical; set-up: KINOMEscan competition binding, DNA-tagged kinase against immobilised ligand, qPCR read-out; settings: read-out: Percent Control
STK32B = STK32B (Homo sapiens, UniProt Q9NY57); test: biochemical; set-up: KINOMEscan competition binding, DNA-tagged kinase against immobilised ligand, qPCR read-out; settings: read-out: Percent Control
STK32B, sequence (Q9NY57 whole entry): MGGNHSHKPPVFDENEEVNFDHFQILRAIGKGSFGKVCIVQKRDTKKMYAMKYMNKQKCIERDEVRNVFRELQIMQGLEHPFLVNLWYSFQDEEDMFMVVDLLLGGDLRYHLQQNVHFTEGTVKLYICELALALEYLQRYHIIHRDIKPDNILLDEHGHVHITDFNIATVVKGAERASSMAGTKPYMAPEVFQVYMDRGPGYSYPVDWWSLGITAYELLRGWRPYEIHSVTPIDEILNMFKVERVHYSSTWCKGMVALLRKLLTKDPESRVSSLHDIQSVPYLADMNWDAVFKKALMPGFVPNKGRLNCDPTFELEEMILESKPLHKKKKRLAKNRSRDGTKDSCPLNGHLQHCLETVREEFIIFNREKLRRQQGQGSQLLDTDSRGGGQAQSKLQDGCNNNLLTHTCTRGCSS

DRAK1 [3] = target: T2, DRAK1; test: biochemical; set-up: KINOMEscan competition binding, DNA-tagged kinase against immobilised ligand, qPCR read-out

T1 sequence (Q9UHD2 whole entry): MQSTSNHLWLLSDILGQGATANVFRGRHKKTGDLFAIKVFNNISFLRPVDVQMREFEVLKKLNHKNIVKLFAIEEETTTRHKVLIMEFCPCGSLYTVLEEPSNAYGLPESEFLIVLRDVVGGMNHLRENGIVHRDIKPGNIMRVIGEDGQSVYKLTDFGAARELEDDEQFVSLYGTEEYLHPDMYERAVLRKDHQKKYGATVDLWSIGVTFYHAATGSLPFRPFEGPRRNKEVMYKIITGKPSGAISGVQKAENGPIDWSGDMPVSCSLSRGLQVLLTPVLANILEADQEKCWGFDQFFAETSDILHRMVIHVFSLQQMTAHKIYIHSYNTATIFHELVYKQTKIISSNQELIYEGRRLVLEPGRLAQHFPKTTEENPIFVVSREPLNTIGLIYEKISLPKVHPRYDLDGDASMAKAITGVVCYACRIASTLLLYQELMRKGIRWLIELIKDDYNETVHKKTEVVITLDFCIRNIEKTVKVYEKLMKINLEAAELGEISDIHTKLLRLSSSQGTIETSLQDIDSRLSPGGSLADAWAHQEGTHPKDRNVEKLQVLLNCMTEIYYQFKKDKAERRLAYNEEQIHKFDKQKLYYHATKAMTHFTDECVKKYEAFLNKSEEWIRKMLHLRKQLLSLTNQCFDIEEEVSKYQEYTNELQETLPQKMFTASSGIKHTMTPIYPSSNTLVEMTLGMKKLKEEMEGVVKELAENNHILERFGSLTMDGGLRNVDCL

Oc1ccc(C2=Cc3ccc(O)cc3OC2)cc1 [compound 1, idronoxil]
Kd [1]: 39.2 µM
KINOMEscan competition binding (403 kinases, 10 μM IDX) (DRAK1 [2]): broadly a poor kinase inhibitor, only binding its top two targets (PIM2 and DRAK1) in the micromolar range
KINOMEscan competition binding (403 kinases, 10 μM IDX) (PIM2): broadly a poor kinase inhibitor, only binding its top two targets (PIM2 and DRAK1) in the micromolar range
remaining binding at 10 µM (CDK8): 58%
remaining binding at 10 µM (FER): 78%
remaining binding at 10 µM (NEK4): 98%
remaining binding at 10 µM (PIK3CB): 98%
remaining binding at 10 µM (PRKAA1): 100%
remaining binding at 10 µM (RIOK3): 100%
remaining binding at 10 µM (SGK2): 95%
remaining binding at 10 µM (STK11): 81%
remaining binding at 10 µM (STK3): 93%
remaining binding at 10 µM (STK32B): 100%
Kd (DRAK1 [3]): 1200 nM
